Data on 24 molecules can be found in patent US20160045505A1, “COMPOUNDS AND COMPOSITIONS FOR THE TREATMENT OF PARASITIC DISEASES” (NOVARTIS AG, priority 2013, published 2016).

Molecules are shown by their SMILES. Like-named read-outs stand apart in the source and are kept apart here.

For data set [1] the following is noted: patients injected with Melarsoprol (Arsobal); cited from earlier work.
Data set [2] deals with Leishmania donovani axenic amastigote parasites. Put plainly: Leishmania donovani axenic amastigote proliferation assay (Cell TiterGlo luminescence, 2 day incubation). Type of data set: cell-based. The conditions noted are these: Leishmania donovani, read-out: L. donovani amastigotes EC50. (In general: ATP-based viability assays read luminescence as a measure of living cells.)

Data set [3] relates to Trypanosoma brucei Lister 427 strain, bloodstream form. Put plainly: Assay for proliferation of kinetoplastid parasite Trypanosoma brucei (Cell Titer Glo, 48 hours). The conditions noted are these: Trypanosoma brucei, T. brucei Lister 427 bloodstream form, read-out: T. brucei EC50. The data set is classed as cell-based. The essentials: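 Bloodstream-form T. brucei Lister 427 in HMI-9 medium was exposed to compound (DMSO vehicle) for 48 hours at 37° C, 5% CO2. Parasite growth was read as ATP by CellTiter-Glo luminescence, with EC50 calculated from percent inhibition.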

Data set [4] deals with Trypanosoma cruzi amastigotes (Tulahuen strain expressing Lac-Z) cultured in 3T3 fibroblast cells. Briefly: microbe, parasite or virus in culture. The data set is classed as cell-based. The conditions noted are these: Trypanosoma cruzi, TULAHUEN, Fibroblast, T. cruzi amastigotes in 3T3 fibroblast cells, read-out: T cruzi EC50.
In data set [5] the test system is L. donovani HU3 strain in mouse peritoneal macrophages. Briefly: Assay for proliferation of Leishmania parasites in infected mouse peritoneal macrophages (SybrGreen staining, high-content imaging, 5 days). The conditions noted are these: Leishmania donovani, Peritoneal macrophage, L. donovani in mouse peritoneal macrophages, read-out: L. donovani Macrophage EC50. The data set is classed as cell-based, Leishmania donovani.

[6] abbreviates: axenic amastigotes, inhibition of proliferation.

Usually EC50 stands for the midpoint of the concentration-response curve.

As to `Nc1nc(N)nc(Nc2ccc([As]3SCC(CO)S3)cc2)n1` (stereo not shown) [Melarsoprol], in data set [1], the “patients who developed reactive encephalopathy (convulsions, progressive coma, or psychotic reactions)” value is recorded as 3-10 % of patients and the “reactive encephalopathy cases that result in death” value was 10-70 % of such cases.

With `Cc1nc(C)c(C(=O)Nc2ccc(F)c(-c3cn4cc(-c5cc(F)ccn5)cnc4n3)c2)o1` [Compound 435], the 50% effective concentration (EC50) in data set [2] (L. donovani axenic amastigotes) was 19 nM; in data set [3], 42 nM; in data set [4], 16 nM; in data set [5], 49 nM.

For `Cc1nc(C)c(C(=O)Nc2ccc(F)c(-c3cn4cc(-c5cnn(C)c5)cnc4n3)c2)o1` [Compound 389], the EC50 in data set [2] (L. donovani axenic amastigotes) amounted to 97 nM; in data set [3] it was 158 nM; in data set [4], 254 nM; in data set [5], 330 nM.

As for `Cc1ncc(C(=O)Nc2cnc3nc(-c4cc(NC(=O)N5CCCC5)ccc4F)cn3c2)o1` [Compound 132], the EC50 is 2870 nM in data set [2] (setting [6]), 1550 nM in data set [3] (inhibition of proliferation), more than 13800 nM in data set [4] (inhibition of proliferation) and more than 50000 nM in data set [5] (inhibition of proliferation).

On to `CON(C)C(=O)Nc1ccc(Cl)c(-c2cn3cc(NC(=O)OC(C)C)cnc3n2)c1` [Compound 214], for which the EC50 came out at 90 nM in data set [2] (setting [6]), 40 nM in data set [3] (inhibition of proliferation), 154 nM in data set [4] (inhibition of proliferation) and 785 nM in data set [5] (inhibition of proliferation).

For the molecule `Cc1nc(C(=O)Nc2ccc(F)c(-c3cn4cc(NC(=O)OC(C)C)cnc4n3)c2)c(C(F)(F)F)o1` [Compound 69], the EC50 was found to be 1400 nM in data set [2] (setting [6]), 3120 nM in data set [3] (inhibition of proliferation), 403 nM in data set [4] (inhibition of proliferation) and 3300 nM in data set [5] (inhibition of proliferation).

Regarding `Cc1nc(C)c(C(=O)Nc2ccc(F)c(-c3cn4cc(NC5=NCC(C)(C)N5)cnc4n3)c2)o1` [Compound 509], the EC50 in data set [2] (L. donovani axenic amastigotes) is more than 25000 nM; in data set [3], 10400 nM; in data set [4], more than 20000 nM; in data set [5], more than 50000 nM.

On to `CC(C)OC(=O)Nc1cnc2nc(-c3cc(NC4=NCCO4)ccc3F)cn2c1` [Compound 499], for which the EC50 was more than 25000 nM in data set [2] (L. donovani axenic amastigotes), 4670 nM in data set [3], 9420 nM in data set [4] and 8260 nM in data set [5].

Regarding `Cc1nc(C)c(C(=O)Nc2ccc(F)c(-c3cn4cc(C(F)F)cnc4n3)c2)o1` [Compound 208], the EC50 in data set [2] (setting [6]) worked out at 134 nM; in data set [3] (inhibition of proliferation) it was 108 nM; in data set [4] (inhibition of proliferation) it was 100 nM; in data set [5] (inhibition of proliferation), 445 nM.

As for `CC(C)OC(=O)Nc1cnc2nc(-c3cc(NC4=NC(C)(C)CO4)ccc3F)cn2c1` [Compound 500], the EC50 in data set [2] (L. donovani axenic amastigotes) was more than 25000 nM; in data set [3], more than 50000 nM; in data set [4], more than 20000 nM; in data set [5], more than 17600 nM.

In the case of `Cc1cc(C(=O)Nc2ccc(F)c(-c3cn4cc(NC(=O)OC(C)C)cnc4n3)c2)[nH]n1` [Compound 79], the concentration giving a half-maximal response (EC50) is 7280 nM in data set [2] (setting [6]), 7350 nM in data set [3] (inhibition of proliferation), more than 20000 nM in data set [4] (inhibition of proliferation) and more than 50000 nM in data set [5] (inhibition of proliferation).

In the case of `Cc1nc(C)c(C(=O)Nc2ccc(F)c(-c3cn4cc(NC(=O)CC5CCCCO5)cnc4n3)c2)o1` (stereo not shown) [Compound 155], the EC50 in data set [2] (setting [6]) is 1550 nM; in data set [3] (inhibition of proliferation), 796 nM; in data set [4] (inhibition of proliferation), 2410 nM; in data set [5] (inhibition of proliferation) it was 3720 nM.

In the case of `Cc1nc(C)c(C(=O)Nc2ccc(F)c(-c3cn4cc(NC(=O)c5oc(C)nc5C)cnc4n3)c2)o1` [Compound 150], the EC50 in data set [2] (setting [6]) was 532 nM; in data set [3] (inhibition of proliferation) it was 506 nM; in data set [4] (inhibition of proliferation) it was more than 20000 nM; in data set [5] (inhibition of proliferation) it was 43800 nM.

In the case of `Cc1nc(C)c(C(=O)Nc2ccc(F)c(-c3cn4cc(NC(=O)c5ccccn5)cnc4n3)c2)o1` [Compound 119], the EC50 in data set [2] (setting [6]) came out at 56 nM; in data set [3] (inhibition of proliferation) it was 86 nM; in data set [4] (inhibition of proliferation), 78 nM; in data set [5] (inhibition of proliferation) it was 289 nM.

On to `O=C(Nc1cnc2nc(-c3cc(NC(=O)N4CCCC4)ccc3F)cn2c1)[C@H]1CCCO1` [Compound 126], for which the EC50 worked out at 434 nM in data set [2] (setting [6]), 126 nM in data set [3] (inhibition of proliferation), 4860 nM in data set [4] (inhibition of proliferation) and 4050 nM in data set [5] (inhibition of proliferation).

As for `CC(C)OC(=O)Nc1cnc2nc(-c3cc(NC(=O)N4C(C)CCC4C)ccc3Cl)cn2c1` (stereo not shown) [Compound 270], the EC50 in data set [2] (setting [6]) came out at 2900 nM; in data set [3] (inhibition of proliferation) it was 4110 nM; in data set [4] (inhibition of proliferation) it was 701 nM; in data set [5] (inhibition of proliferation), 2200 nM.

In the case of `CC(C)OC(=O)N(C)c1cnc2nc(-c3cc(NC(=O)c4ccco4)ccc3Cl)cn2c1` [Compound 561, isopropyl (2-(2-chloro-5-(furan-2-carboxamido)phenyl)imidazo[1,2-a]pyrimidin-6-yl)(methyl)carbamate], the EC50 in data set [2] (L. donovani axenic amastigotes) was determined as 740 nM; in data set [3], 286 nM; in data set [4], 139 nM; in data set [5] it was 2140 nM.

On to `CC(C)OC(=O)Nc1cnc2nc(-c3cc(Nc4ncccc4OC(F)(F)F)ccc3F)cn2c1` [Compound 487], for which the EC50 in data set [2] (L. donovani axenic amastigotes) was more than 25000 nM; in data set [3], more than 50000 nM; in data set [4], more than 16600 nM; in data set [5] it was more than 50000 nM.

With `Cc1nc(C)c(C(=O)Nc2ccc(F)c(-c3cn4cc(NC(=O)c5ncco5)cnc4n3)c2)o1` [Compound 188], the EC50 is 226 nM in data set [2] (setting [6]), 185 nM in data set [3] (inhibition of proliferation), 1230 nM in data set [4] (inhibition of proliferation) and more than 5600 nM in data set [5] (inhibition of proliferation).

On to `Cc1nc(C)c(C(=O)Nc2ccc(F)c(-c3cn4cc(-c5ccc(N6CCOCC6)cc5)cnc4n3)c2)o1` [Compound 383], for which the EC50 worked out at 146 nM in data set [2] (L. donovani axenic amastigotes), 331 nM in data set [3], 137 nM in data set [4] and 521 nM in data set [5].

As to `CC(C)OC(=O)Nc1cnc2nc(-c3cc(NC(=O)C4CCC4)ccc3F)cn2c1` [Compound 102], the EC50 is 540 nM in data set [2] (setting [6]), 492 nM in data set [3] (inhibition of proliferation), 464 nM in data set [4] (inhibition of proliferation) and 1710 nM in data set [5] (inhibition of proliferation).

For the molecule `COC(=O)c1cnc2nc(-c3cc(NC(=O)c4oc(C)nc4C)ccc3F)cn2c1` [Compound 548, methyl 2-(5-(2,4-dimethyloxazole-5-carboxamido)-2-fluorophenyl)imidazo[1,2-a]pyrimidine-6-carboxylate], the EC50 in data set [2] (L. donovani axenic amastigotes) turned out to be 651 nM; in data set [3], 518 nM; in data set [4] it was 539 nM; in data set [5], 1070 nM.

Consider `Cc1cccnc1-c1cnc2nc(-c3cc(N)ccc3F)cn2c1` [Compound 594, 4-fluoro-3-(6-(3-methylpyridin-2-yl)imidazo[1,2-a]pyrimidin-2-yl)aniline], for which the EC50 is more than 25000 nM in data set [2] (L. donovani axenic amastigotes), more than 50000 nM in data set [3], more than 19900 nM in data set [4] and more than 32800 nM in data set [5].

`O=C(Nc1ccc(F)c(-c2cn3cc(C(F)(F)F)cnc3n2)c1)N1CC[C@H](F)C1` [Compound 297]: the EC50 in data set [2] (setting [6]) was found to be 52 nM; in data set [3] (inhibition of proliferation), 51 nM; in data set [4] (inhibition of proliferation), 37 nM; in data set [5] (inhibition of proliferation), 223 nM.
